Drawing on patent US7855212B2, “Pyridinyl acetonitriles” (Merck Serono SA, priority 2003, dated 2010), this text covers IC50 for 16 compounds.

The target in one test is human GSK3 beta (Homo sapiens, UniProt P49841). Kind of test: GSK3β in vitro assay (33P phosphorylation of phospho GS2 peptide). It counts as biochemical. The note with it: in vitro potency on human GSK3 beta; read-out: IC50 (μM) GSK3beta. The method, then: GSK3β Assay (see Bioorg. Med. Chem. Lett by Naerum et al. 12 p. 1525-1528 (2002))
In a final reaction volume of 25 μl, GSK3β (h) (5-10 mU) is incubated with 8 mM MOPS pH 7.0, 0.2 mM EDTA, 20 μM […](p)EDEEE (being the GSK3 substrate; a phospho GS2 peptide), 10 mM Mg Acetate and [γ-^33P-ATP] (Specific activity approx. 500 cpm/pmol, concentration as required). The reaction is initiated by the addition of Mg^2+ [γ-^33P-ATP]. After incubation for 40 minutes at room temperature, the reaction is stopped by the addition of 5 μl of a 3% phosphoric acid solution. 10 μl of the reaction is then spotted onto a P30 filtermat and washed three times for 5 minutes in 50 mM phosphoric acid and once in methanol prior to drying and the degree of phosphorylation of the substrate is determined by scintillation counting.

Another test deals with rat JNK3 (Rattus norvegicus, UniProt P49187). Kind of test: JNK3 in vitro assay (33P incorporation into c-Jun, SPA). In kind it is biochemical. The note with it: in vitro potency on rat JNK3; read-out: JUNK3 IC50. The method, then: The compounds of the present invention are inhibitors of JNKs. The phosphorylation of c-jun by JNK2 or JNK3 may be determined by monitoring the incorporation of ^33P into c-jun following the protocol below. The inhibitory activity of the compounds according to formula I, towards c-jun phosphorylation through JNK, is determined by calculating phosphorylation activity in the presence or absence of compounds according to formula I.
JNK3 and/or -2 assays are performed in 96 well MIT plates: incubation of 0.5 μg of recombinant, pre-activated GST-JNK3 or GST-JNK2 with 1 μg of recombinant, biotinylated GST-c-Jun and 2 μM ^33γ-ATP (2 nCi/μl), in the presence or absence of compounds according to formula I and in a reaction volume of 50 μl containing 50 mM Tris-HCl, pH 8.0; 10 mM MgCl2; 1 mM Dithiothreitol, and 100 μM NaVO4. The incubation is performed for 120 min. at R.T and stopped upon addition of 200 μl of a solution containing 250 μg of Streptavidine-coated SPA beads (Amersham, Inc.)*, 5 mM EDTA, 0.1% Triton X-100 and 50 μM ATP, in phosphate saline buffer.
After incubation for 60 minutes at RT, beads are sedimented by centrifugation at 1500×g for 5 minutes, resuspended in 200 μl of PBS containing 5 mM EDTA, 0.1% Triton X-100 and 50 μM ATP and the radioactivity measured in a scintillation β counter, following sedimentation of the beads as described above.

Chain of human GSK3 beta (P49841 whole entry): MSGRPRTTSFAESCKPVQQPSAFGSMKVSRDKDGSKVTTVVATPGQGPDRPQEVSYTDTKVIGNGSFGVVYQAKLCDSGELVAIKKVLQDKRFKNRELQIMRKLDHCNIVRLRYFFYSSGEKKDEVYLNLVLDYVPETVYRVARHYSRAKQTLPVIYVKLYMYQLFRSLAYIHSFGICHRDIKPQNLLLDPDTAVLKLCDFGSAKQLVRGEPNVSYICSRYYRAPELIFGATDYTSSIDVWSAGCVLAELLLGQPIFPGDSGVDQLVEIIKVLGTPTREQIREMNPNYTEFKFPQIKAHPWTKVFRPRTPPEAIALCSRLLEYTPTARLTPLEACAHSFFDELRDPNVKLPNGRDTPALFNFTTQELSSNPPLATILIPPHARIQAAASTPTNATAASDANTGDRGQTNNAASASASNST
Chain of rat JNK3 (P49187 whole entry): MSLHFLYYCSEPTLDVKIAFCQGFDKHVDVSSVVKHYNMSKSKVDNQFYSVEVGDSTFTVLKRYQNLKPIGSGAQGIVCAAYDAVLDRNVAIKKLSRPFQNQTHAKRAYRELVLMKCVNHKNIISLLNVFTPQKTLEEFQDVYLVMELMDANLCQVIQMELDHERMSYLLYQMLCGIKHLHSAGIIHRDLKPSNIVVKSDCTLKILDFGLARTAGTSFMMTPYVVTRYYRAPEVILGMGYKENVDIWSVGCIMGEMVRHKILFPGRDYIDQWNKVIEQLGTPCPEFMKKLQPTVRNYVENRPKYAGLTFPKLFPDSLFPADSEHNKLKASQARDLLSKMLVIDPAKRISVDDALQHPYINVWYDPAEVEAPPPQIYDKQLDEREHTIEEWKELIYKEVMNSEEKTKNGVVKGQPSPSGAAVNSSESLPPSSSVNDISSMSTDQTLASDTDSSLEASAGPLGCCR

What is called IC50 is the concentration at which inhibition is half-maximal. Turning to `Cc1cnc(NCCc2cccnc2)nc1/C(C#N)=C1/C=CC=CN1` [Example 3, 4-pyrimidineacetonitrile, 5-methyl-2-[[2-(3-pyridinyl)ethyl]amino]-alpha-2(1H)-pyridinylidene-], the IC50 at human GSK3 beta turned out to be 0.5 µM.
As for `Cc1cnc(NCCc2ccc(N(C)C)nc2)nc1/C(C#N)=C1/C=CC=CN1` [Example 4, 4-pyrimidineacetonitrile, 2-[[2-[6-(dimethylamino)-3-pyridinyl]ethyl]amino]-5-methyl-alpha-2(1H)-pyridinylidene-], the IC50 at rat JNK3 was 480 nM.
On to `Cc1cnc(NC2CCCCC2)nc1/C(C#N)=C1/C=CC=CN1` [Example 8, 4-pyrimidineacetonitrile, 2-(cyclohexylamino)-5-methyl-alpha-2-pyridinyl-], for which, at rat JNK3, the IC50 is 70 nM.
`Cc1cnc(NCC2CCCCC2)nc1/C(C#N)=C1/C=CC=CN1` [Example 9, 4-pyrimidineacetonitrile, 2-[(cyclohexylmethyl)amino]-5-methyl-alpha-2 pyridinyl-]: the IC50 on rat JNK3 was 486 nM.
Turning to `Cc1cnc(NC2CCC2)nc1/C(C#N)=C1/C=CC=CN1` [Example 11, 4-pyrimidineacetonitrile, 2-(cyclobutylamino)-5-methyl-alpha-2(1H)-pyridinylidene], the IC50 at rat JNK3 amounted to 106 nM.
Consider `Cc1cnc(NC2CCN(C(=O)OC(C)(C)C)CC2)nc1/C(C#N)=C1/C=CC=CN1` [Example 12, 1-piperidinecarboxylic acid, 4-[[4-[(E)-cyano-2(1H)-pyridinylidenemethyl]-5-methyl-2-pyrimidinyl]amino]-, 1,1-dimethylethyl ester], for which, on rat JNK3, the IC50 was 1140 nM.
On to `CCN1C=CC=C/C1=C(\C#N)c1nc(NC2CCCC2)ncc1C` [Example 14, 4-pyrimidineacetonitrile, 2-(cyclopentylamino)-alpha-(1-ethyl-2(1H)-pyridinylidene)-5-methyl], for which, at rat JNK3, the half-inhibitory concentration (IC50) was determined as 6200 nM.
For `Cc1cnc(NC2CC2)nc1/C(C#N)=C1/C=CC=CN1` [Example 15, 4-pyrimidineacetonitrile, 2-(cyclopropylamino)-5-methyl-alpha-2-pyridinyl-], the IC50 stood at 0.2 µM at human GSK3 beta and 299 nM at rat JNK3.
Turning to `Cc1cnc(NC2CCN(Cc3ccccc3)CC2)nc1/C(C#N)=C1/C=CC=CN1` [Example 16, 4-pyrimidineacetonitrile, 5-methyl-2-[[1-(phenylmethyl)-4-piperidinyl]amino]-alpha-2(1H)-pyridinylidene-], the IC50 at rat JNK3 turned out to be 665 nM.
Turning to `Cc1cnc(NCC(C)C)nc1/C(C#N)=C1/C=CC=CN1` [Example 20, 4-pyrimidineacetonitrile, 5-methyl-2-[(2-methylpropyl)amino]-alpha-2(1H)-pyridinylidene-], the IC50 at rat JNK3 worked out at 210 nM.
On the same count and under the same terms, the same measure for `Cc1cnc(NC(C)C)nc1/C(C#N)=C1/C=CC=CN1` [Example 21, 4-pyrimidineacetonitrile, 5-methyl-2-[(1-methylethyl)amino]-alpha-2(1H)-pyridinylidene-]: 310 nM; for `Cc1cnc(N[C@H]2CCCC[C@@H]2O)nc1/C(C#N)=C1/C=CC=CN1` [Example 22, 4-pyrimidineacetonitrile, 2-[[(1S,2S)-2-hydroxycyclohexyl]amino]-5-methyl-alpha-2(1H)-pyridinylidene-]: 740 nM.
Turning to `CCCC(C)Nc1ncc(C)c(/C(C#N)=C2/C=CC=CN2)n1` (stereo not drawn) [Example 25, 4-pyrimidineacetonitrile, 5-methyl-2-[(1-methylbutyl)amino]-alpha-2-pyridinyl-], at human GSK3 beta, the 50% inhibitory concentration (IC50) was found to be 0.17 µM.
`N#CC(=C1C=CNC=C1)c1ccnc(NCCc2cccnc2)n1` [Example 34, 4-pyrimidineacetonitrile, alpha-4-pyridinyl-2-[[2-(3-pyridinyl)ethyl]amino]-]: the IC50 at human GSK3 beta came out at 1.5 µM.
Turning to `CNc1nc(NCCc2cccnc2)nc(/C(C#N)=C2/C=CC=CN2)n1` [Example 49, 1,3,5-triazine-2-acetonitrile, 4-(methylamino)-alpha-2-pyridinyl-6-[[2-(3-pyridinyl)ethyl]amino]-], on human GSK3 beta, the half-inhibitory concentration (IC50) was found to be 7.7 µM.
For the compound `Cc1cnc(Cl)nc1/C(C#N)=C1/C=CC=CN1` [Intermediate 5, 4-pyrimidineacetonitrile, 2-chloro-5-methyl-alpha-2(1H)-pyridinylidene-], on rat JNK3, the IC50 was 2350 nM.
